Laboratory results: patent US20240124428A1, “HETEROCYCLIC INHIBITORS OF PCSK9” (CARDIO THERAPEUTICS PTY LTD, priority 2020, published 2024)

Assays:
[1] = Dedicated pharmacokinetic study, single oral dose; type: in vivo, C57BL/6 mice; conditions: plasma; for Cmax / Tmax / AUC(0-t): female, C57BL/6, mouse, mice; for Cmax / Tmax: PO 50 mg/kg study; for AUC(0-t): route and dose not given (PO 50 mg/kg study); for bioavailability: mouse, PO dose of 50 mg/kg, female C57BL/6 mice
Experimental: For dedicated pharmacokinetic analyses of compounds 29, 122 and 131, C57BL/6 mice (19-21 g, 10-12 weeks, female, purchased from Jihui Laboratory Animal Co. LTD) were given free access to food and water throughout the in-life phase of the study. Mice were orally dosed once with 50 mg/kg (10 mL/kg) of either compound 29, 122 and 131 with each compound formulated in 90% saline, 5% Solutol HS15 and 5% DMSO. At designated time points following dosing (t=0.083, 0.25, 0.5, 1, 2, 4, 8 and 24 h), the animals were restrained manually and ˜110 μL of blood/time point was collected into pre-cooled EDTA-K2 tubes via the facial vein. Blood samples were put on wet ice, then centrifuged at 2000 g for 5 min (4° C.) to obtain plasma within 15 min after sample collection. Plasma samples were subsequently stored at approximately −70° C. until analysis. Each sample was assayed for levels of 29, 122 and 131 by LC/MS/MS using a Triple Quadruple (6500+) system operating in a positive electrospray ionisation mode.
The mean plasma concentration-time profiles from dedicated pharmacokinetic analyses of compound 29, 122 and 131 are shown in FIG. 5A-C. Mice were orally dosed once with either 50 mg/kg of (A) compound 29, (B) compound 122 or (C) compound 131.

[2] = target: T1, CYP2D6 (Homo sapiens, UniProt P10635); assay: CYP inhibition assay, CYP2D6; type: in vitro ADME; conditions: probe Bufaralol (10 μM), human liver microsomes
T1 construct: using human liver microsomes; from tissue; host or cells: human liver microsomes
Experimental: In vitro CYP (cytochrome P450) enzyme inhibition studies predict a drug candidate's predisposition to inhibit cytochrome P450 enzymes. The cytochrome P450 (CYP) inhibition assay was run against CYP2D6 and CYP3A4 isoforms using human liver microsomes. For CYP2D6, the probe substrates was Bufaralol (10 μM) and the positive control was Quinidine (2.5 μM). Midazolam (5 μM) was chosen as the probe substrate for CYP3A4 and Ketocanazole (2.5 μM) was used as the positive control inhibitor. To increase the throughput of the assay, one concentration (10 μM) was tested. For analysis via LC-MS, internal standards of 1-OH-Bufuralol-maleate-[D9] for CYP2D6 and 1′-OH-Midazolam-13C3 for CYP3A4 were used.

[3] = target: T2, hERG channel (Homo sapiens, UniProt Q12809); assay: hERG assay (automated QPatch); type: cell-based; conditions: CHO cells expressing hERG channels
T2 construct: expressed in transfected cells; host or cells: CHO
Experimental: A CHO cell line stably transfected with hERG cDNA and expressing hERG channels was used. Cells used in the QPatch all met the following criteria: under microscopy examination, the majority of cells in suspension were single and isolated, their viability was greater than 95%, cell density ranged between 3-8×10^6 cells/mL in the final suspension before applying to the QPatch stir chamber. Cells were used within 4 hours of harvesting. Whole-cell recordings were performed using automated QPatch (Sophion Bioscience, Denmark). The cells were voltage clamped at a holding potential of −80 mV. The hERG current was activated by depolarising at +20 mV for 5 seconds, after which the current was taken back to −50 mV for 2.5 seconds to remove the inactivation and observe the outward tail current. The maximum amount of tail current was used to determine hERG current amplitude.

[4] = HepG2 cytotoxicity (CellTiter-Glo); type: cell-based; conditions: human, HepG2 cells; 48 h of exposure
Experimental: HepG2 is a human hepatoma commonly used in drug metabolism and hepatotoxicity studies.
HepG2 cells were seeded at a density of 7000 or 8000 cells/well in a 96-well plate. Twenty to twenty four hours later, cells were treated with test compound for 48 hours in 3-fold serial dilutions with a top test concentration of 50 or 150 μM. After the incubation, CellTiter-Glo reagent was added directly to the wells. The plate was shaken for 2 or 5 mins on a plate shaker then incubated at room temperature for a further 10 mins. Subsequently, 100 μL of the above solution was transferred to a white flat bottom opaque 96 well plate (or opaque-walled clear bottom plates taped with a white bottom seal) and luminescence recorded on a plate reader.

[5] = Dedicated pharmacokinetic study, single oral dose; type: in vivo, C57BL/6 mice; conditions: mice, route and dose not given; for half-life: C57BL/6, mouse, plasma, intravenous, 0.4 mg/kg
[6] = test system: APOE*3-Leiden.CETP mice; assay: In vivo efficacy study: compound 29 monotherapy; conditions: for reduction of total plasma cholesterol levels compared to the vehicle control: over a period of four weeks
Experimental: Female APOE*3-Leiden.CETP mice (˜10-14 weeks old) were obtained from the SPF breeding stock at TNO-Metabolic Health Research (Leiden).
Mice were housed in macrolon cages (maximum of 6 mice per cage) in clean-conventional animal rooms (relative humidity 50-60%, temperature ˜21° C., light cycle 7 am to […]). Mice were fed a semi-synthetic western type diet with 15% saturated fat and 0.15% (w/w) cholesterol and were provided with heat-sterilized tap water and food ad libitum.
Forty female APOE*3-Leiden.CETP mice were allowed to acclimate to these conditions for a 3 week run-in period prior to the removal of 8 low-responder mice. […] In the final week of the run-in diet, all mice received vehicle solution (5% DMSO, 5% Solutol HS15, 90% saline) twice daily by oral gavage to accustom the animals to the procedure. After matching, mice received vehicle solution only (Group 1) or compound 29 in vehicle solution (Groups 2, 3 and 4) for the remainder of the study by twice daily administration using oral gavage in a volume of 5 mL/kg body weight. On days 0, 3, 7, 14, 21 and 28 of treatment, blood samples were taken after 4 h of fasting, from which EDTA plasma was collected and used for measurement of plasma total cholesterol. Lipoprotein profiles were determined on day 0, 14 and 28 in group pooled plasma samples using an equal volume of plasma per mouse. On day 28, directly after the last blood sampling point, mice were sacrificed via CO2 asphyxiation, fasted. At sacrifice, EDTA-plasma samples were obtained via heart puncture.
EDTA plasma blood samples were obtained after 4 h fasting. Animals were placed under a red light lamp for at least 10 minutes. The tail was fixed and the mice were allowed to move freely during blood collection and were not fixed to avoid additional stress. […]
Total plasma cholesterol and triglyceride levels were determined using a […] from Roche.
Analyses were performed in samples pooled per group. Cholesterol levels were measured using a “Cholesterol CHOD-PAP” kit from Roche.

T2 sequence (Q12809 whole entry): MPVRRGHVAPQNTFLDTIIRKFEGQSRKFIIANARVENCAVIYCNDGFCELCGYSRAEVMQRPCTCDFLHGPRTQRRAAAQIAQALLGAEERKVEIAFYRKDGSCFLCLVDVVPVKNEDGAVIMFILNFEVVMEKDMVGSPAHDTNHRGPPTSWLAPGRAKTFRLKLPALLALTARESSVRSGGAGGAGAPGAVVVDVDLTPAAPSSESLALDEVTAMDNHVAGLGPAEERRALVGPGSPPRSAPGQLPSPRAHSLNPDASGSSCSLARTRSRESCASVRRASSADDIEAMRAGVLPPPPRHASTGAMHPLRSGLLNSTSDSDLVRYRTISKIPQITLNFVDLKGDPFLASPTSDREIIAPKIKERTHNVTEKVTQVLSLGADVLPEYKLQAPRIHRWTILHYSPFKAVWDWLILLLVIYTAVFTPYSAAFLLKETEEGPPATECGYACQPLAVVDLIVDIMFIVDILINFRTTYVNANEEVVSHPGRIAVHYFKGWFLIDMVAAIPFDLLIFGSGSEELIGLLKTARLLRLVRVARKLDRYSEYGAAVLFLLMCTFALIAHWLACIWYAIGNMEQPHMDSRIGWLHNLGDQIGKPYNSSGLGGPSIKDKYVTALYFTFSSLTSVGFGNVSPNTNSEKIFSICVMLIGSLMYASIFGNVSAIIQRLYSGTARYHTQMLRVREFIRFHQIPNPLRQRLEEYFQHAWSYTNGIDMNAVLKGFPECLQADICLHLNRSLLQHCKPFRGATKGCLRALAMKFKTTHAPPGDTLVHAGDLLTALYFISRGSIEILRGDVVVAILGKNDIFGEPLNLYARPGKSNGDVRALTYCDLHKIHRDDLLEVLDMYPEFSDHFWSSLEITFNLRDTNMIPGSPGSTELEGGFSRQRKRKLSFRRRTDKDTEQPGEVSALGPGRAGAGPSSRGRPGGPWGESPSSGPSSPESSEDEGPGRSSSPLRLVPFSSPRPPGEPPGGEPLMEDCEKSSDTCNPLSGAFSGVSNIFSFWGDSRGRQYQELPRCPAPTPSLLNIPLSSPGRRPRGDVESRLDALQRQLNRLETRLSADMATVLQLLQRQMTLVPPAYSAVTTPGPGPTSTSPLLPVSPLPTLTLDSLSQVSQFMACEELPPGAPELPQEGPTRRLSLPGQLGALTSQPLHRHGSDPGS
T1 sequence (P10635 whole entry): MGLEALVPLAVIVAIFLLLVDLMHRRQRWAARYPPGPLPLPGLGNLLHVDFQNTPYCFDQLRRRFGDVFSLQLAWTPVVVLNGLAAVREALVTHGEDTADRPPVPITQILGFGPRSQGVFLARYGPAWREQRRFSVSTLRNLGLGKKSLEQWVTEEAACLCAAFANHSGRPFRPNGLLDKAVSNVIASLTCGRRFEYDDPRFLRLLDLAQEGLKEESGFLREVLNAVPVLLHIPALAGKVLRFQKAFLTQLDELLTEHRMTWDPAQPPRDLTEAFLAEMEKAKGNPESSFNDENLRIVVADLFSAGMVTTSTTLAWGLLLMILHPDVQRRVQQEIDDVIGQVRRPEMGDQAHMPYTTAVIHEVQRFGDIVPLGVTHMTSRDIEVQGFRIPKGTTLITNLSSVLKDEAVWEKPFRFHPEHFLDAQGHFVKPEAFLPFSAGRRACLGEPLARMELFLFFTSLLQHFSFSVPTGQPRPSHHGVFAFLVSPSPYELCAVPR

Cmax [1] | Tmax [1] | AUC(0-t) [1] | bioavailability [1] | inhibition at 10 µM [2] | half-life [5] | T1/2 [5] | Structure (SMILES) | IC50 [3] | IC50 at 48 h [4] | plasma PCSK9 levels ([6]; 30 and 50 mg/kg bid oral, over four weeks) | reduction of total plasma cholesterol levels compared to the vehicle control ([6]; oral dosing 30 mg/kg) | reduction of total plasma cholesterol levels compared to the vehicle control ([6]; oral dosing 50 mg/kg)
10800 ng/mL | 4 h | 173000 ng·h/mL | 75% | 25.6% | 11.3 h | – | Cc1ccc(-c2cc(CN3CCC(F)(F)[C@H](N)C3)cc(NC(=O)c3cc(-c4ccccc4)ccn3)c2)cn1 [Compound 122] | 35.7 µM | 11.1 µM | – | – | –
1480 ng/mL | 2 h | 8130 ng·h/mL | 40% | 69.8% | – | 6.29 h | Cc1cn(-c2cc(CN3CCC[C@H](N)C3)cc(NC(=O)c3cc(-c4ccccc4)ccn3)c2)cn1 [compound 29, (S)—N-(3-((3-aminopiperidin-1-yl)methyl)-5-(4-methyl-1H-imidazol-1-yl)phenyl)-4-phenylpicolinamide] | 2.85 µM | 3.23 µM | increase in plasma PCSK9 levels | more than 30% | > 50%
6740 ng/mL | 1 h | 98500 ng·h/mL | 54% | 11.4% | 19 h | – | Cc1cnc(C(=O)Nc2cc(CN3CCC(F)(F)[C@H](N)C3)cc(-c3ccc(C(F)(F)F)nc3)c2)cc1-c1ccccc1 [compound 131] | 94.2 µM | 109 µM | – | – | –
